Reference: publication PMC7036548 (Cellular and Molecular Gastroenterology and Hepatology, 2019)

Key:
[1] = molecular target: human MOR (CHO cells) (Homo sapiens, UniProt P35372); test: […]GTPγS binding, CHO membranes; assay type: biochemical; settings: 10 μmol/L GDP, pH 7.4, RT; no G protein activation
[2] = molecular target: T1, DOR-eGFP (Mus musculus, UniProt P32300); test: DOR-eGFP internalization, confocal imaging; settings: agonist, 1 μmol/L; blocked by naltrindole
[3] = molecular target: T1, DOR-eGFP; test: DOR-eGFP internalization, confocal imaging; settings: agonist; control 73.8 ± 2.6%; myenteric neurons of colon

T1 sequence (P32300 whole entry): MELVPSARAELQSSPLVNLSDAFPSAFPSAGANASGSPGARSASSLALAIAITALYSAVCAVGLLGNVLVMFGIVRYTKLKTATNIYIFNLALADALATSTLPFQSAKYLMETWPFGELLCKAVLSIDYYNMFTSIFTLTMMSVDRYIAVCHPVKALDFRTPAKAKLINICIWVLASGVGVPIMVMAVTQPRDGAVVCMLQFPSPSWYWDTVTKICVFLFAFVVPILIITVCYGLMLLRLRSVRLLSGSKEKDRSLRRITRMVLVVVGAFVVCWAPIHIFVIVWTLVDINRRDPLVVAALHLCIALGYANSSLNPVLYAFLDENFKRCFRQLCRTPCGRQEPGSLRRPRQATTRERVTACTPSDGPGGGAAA
Chain of human MOR (CHO cells) (P35372 whole entry): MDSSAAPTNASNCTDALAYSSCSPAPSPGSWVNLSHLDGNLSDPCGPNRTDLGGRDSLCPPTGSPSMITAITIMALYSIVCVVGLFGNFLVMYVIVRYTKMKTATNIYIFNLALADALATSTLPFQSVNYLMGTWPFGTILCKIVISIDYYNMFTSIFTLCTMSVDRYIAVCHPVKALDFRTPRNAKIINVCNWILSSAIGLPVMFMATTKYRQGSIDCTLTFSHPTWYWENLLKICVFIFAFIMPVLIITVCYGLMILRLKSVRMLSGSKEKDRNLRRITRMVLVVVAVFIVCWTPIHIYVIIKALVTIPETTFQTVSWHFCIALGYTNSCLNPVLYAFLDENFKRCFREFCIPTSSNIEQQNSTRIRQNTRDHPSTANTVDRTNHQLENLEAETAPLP

| Structure (SMILES) | [35S]GTPγS binding, CHO membranes [1] | DOR-eGFP internalization, confocal imaging [2] | % cell surface DOR-eGFP at 1 μmol/L [3] |
| --- | --- | --- | --- |
| CCOC(=O)C1(CCc2ccccc2)CCN(Cc2ccc(NC(C)=O)cc2)CC1 [CYM51010] | increase in G protein activation only in DOR expressing CHO cells | CYM51010 promoted robust internalization of DOR-eGFP in both myenteric and submucosal neurons | – |
| C=CCN1C[C@H](C)N([C@H](c2ccc(C(=O)N(CC)CC)cc2)c2cccc(OC)c2)C[C@H]1C [SNC80] | – | – | 41.9 ± 2.9% |
